Assay results as given in article PMC7559897, “Designed Antimicrobial Peptides Against Trauma-Related Cutaneous Invasive Fungal Wound Infections” (Journal of Fungi, 2020).
In brackets after ≈: the same amount, converted by molar mass. Bridge positions count the residues as written; N and C are the ends. Square brackets hold non-standard residues; d marks the D form. Peptide text beside a SMILES is read from it. Orn = NCCC[C@H](N)C(=O)O

Tests used:
[1] = test system: vulvovaginal candidiasis infection; conditions: rodent vulvovaginal candidiasis, after three days of daily treatment; cited from earlier work
Excerpt: The dAMPs RP504, RP554 and RP557 were thus tested for their ability to treat a rodent vulvovaginal candidiasis infection. […] A daily dose with a 2% concentration lowered the CFU/sample by more than 4 logs compared to the con ...

P. aeruginosa 6186 = assay type: cell-based, Pseudomonas aeruginosa; conditions: 6186, 24 h
Procedure: (§1) Assays were performed by Trideum Biosciences (Frederick, MD, USA). Isolates were thawed from −80 °C storage and sub-cultured on trypticase soy agar plates at 37 °C prior to experimentation. A single colony was aseptically picked from the agar plate and released in 30 mL trypticase soy broth and incubated overnight at 37 °C incubator. Following which the bacterial culture was diluted to approximately 10^6 colony forming units (CFU)/mL using 2X cation adjusted Mueller–Hinton broth and added to the dAMP solutions (0, 2, 4, 8, 16, 32, 64, and 128 μg/mL) which had been formulated in water at 256 μg/mL and then serially diluted in media on 96-well pates. For fungal evaluation, potato dextrose broth and potato dextrose agar plates were used. The treated cultures were then incubated for 24 h at 37 °C and pathogen growth was measured by absorbance at 600 nm. Four replicas were included for each dAMP concentration. Each MIC was assigned to the lowest test agent concentration resulting in at least three out of four wells showing no growth based on an optical density (OD) reading of <0.1.

P. aeruginosa ATCC 27853 = assay type: cell-based, Pseudomonas aeruginosa; conditions: ATCC 27853, 24 h
Procedure: as §1

P. aeruginosa ATCC 19660 = assay type: cell-based, Pseudomonas aeruginosa; conditions: ATCC 19660, 24 h
Procedure: as §1

[2] = test system: Aspergillus fumigatus 9651; assay type: cell-based; conditions: 9651, 24 h
Procedure: as §1

[3] = test system: Candida parapsilosis Y-1761; assay type: cell-based; conditions: Y-1761, 24 h
Procedure: as §1

[4] = test system: Fusarium solani NRRL 28548; assay type: cell-based; conditions: NRRL 28548, 24 h
Procedure: as §1

[5] = test system: Mucor circinelloides NRRL 3631; assay type: cell-based; conditions: NRRL 3631, 24 h
Procedure: as §1

Candida albicans Y-6359 = assay type: cell-based; conditions: Y-6359, 24 h
Procedure: as §1

[6] = test system: Aspergillus flavus MYA-3651; assay type: cell-based; conditions: 24 h
Procedure: as §1

E. cloacae 6054 = assay type: cell-based; conditions: 6054, 24 h
Procedure: as §1

[7] = test system: Aspergillus flavus MYA-1004; assay type: cell-based; conditions: 24 h
Procedure: as §1

E. cloacae 6053 = assay type: cell-based; conditions: 6053, 24 h
Procedure: as §1

Candida krusei Y-27825 = assay type: cell-based; conditions: Y-27825, 24 h
Procedure: as §1

S. epidermis ATCC 51625 = assay type: cell-based; conditions: ATCC 51625, 24 h
Procedure: as §1

Candida albicans Y-326 = assay type: cell-based; conditions: Y-326, 24 h
Procedure: as §1

[8] = test system: Aspergillus fumigatus 9648; assay type: cell-based; conditions: 9648, 24 h
Procedure: as §1

[9] = test system: Absidia corymbifera NRRL 6251; assay type: cell-based; conditions: NRRL 6251, 24 h
Procedure: as §1

[10] = test system: Candida parapsilosis Y-1763; assay type: cell-based; conditions: Y-1763, 24 h
Procedure: as §1

Candida krusei Y-27803 = assay type: cell-based; conditions: Y-27803, 24 h
Procedure: as §1

K. pneumonia 6069 = assay type: cell-based, Klebsiella pneumoniae; conditions: 24 h
Procedure: as §1

K. pneumonia ATCC 10031 = assay type: cell-based, Klebsiella pneumoniae; conditions: ATCC 10031, 24 h
Procedure: as §1

S. aureus 6061 = assay type: cell-based, Staphylococcus aureus; conditions: 6061, 24 h
Procedure: as §1

MRSA 6381 = assay type: cell-based, Staphylococcus aureus; conditions: 6381, 24 h
Procedure: as §1

MRSA ATCC 33592 = assay type: cell-based, Staphylococcus aureus; conditions: ATCC 33592, 24 h
Procedure: as §1

MRSA 6313 = assay type: cell-based, Staphylococcus aureus; conditions: 6313, 24 h
Procedure: as §1

S. aureus B-767 = assay type: cell-based, Staphylococcus aureus; conditions: B-767, 24 h
Procedure: as §1

A. baumannii ATCC 17978 = assay type: cell-based, Acinetobacter baumannii; conditions: ATCC 17978, 24 h
Procedure: as §1

A. baumannii 6838 = assay type: cell-based, Acinetobacter baumannii; conditions: 6838, 24 h
Procedure: as §1

A. baumannii 6043 = assay type: cell-based, Acinetobacter baumannii; conditions: 6043, 24 h
Procedure: as §1

[11] = test system: P. aeruginosa 19660 (Xen5 luciferase); experiment: Bioluminescent time-kill assay; assay type: cell-based, Pseudomonas aeruginosa; conditions: 8 μg/mL, 60 min, bioluminescence, triplicates from two independent experiments
Excerpt: (§2) Fungal and bacterial strains were obtained from American Type Culture Collection (ATCC, Manassas, VA, USA) or the clinical isolate collection at Trideum Biosciences (Frederick, MD, USA) and are presented in Table 1 and Table 2, respectively. Bioluminescence strains of P. aeruginosa 19660, transfected with the Xen5 luciferase gene, and S. aureus ATCC R 49525TM (Wright), transfected with the Xen36 luciferase gene, were obtained from Perkin Elmer (Waltham, MA, USA).
(§3) Real-time killing of bacterial cells, P. aeruginosa or S. aureus, and mammalian cytotoxicity to assess dAMP off-target toxicity was evaluated using bioluminescent cells. The L929 fibroblast cells (ATCC, Manassas, VA, USA) were made bioluminescent by transfection with a luciferase gene. Cells (1 × 10^4 cells, 100 μL) were plated in 96-well black-walled plates and the candidate dAMPs were 2-fold serially diluted from specified concentrations in growth medium supplemented with 150 μg/mL D-luciferin. Each concentration was performed in triplicate, with the final volume being 200 μL. Imaging was performed at select times after the addition of the dAMP, and compared to concurrently run vehicle-control, using an IVIS Lumina imaging system (Caliper Life Sciences, Inc., Hopkinton, MA, USA). For imaging, the 96-well plate was positioned on the stage (12.5-cm field of view), with an open emission filter, binning of 4, and f-stop 1 and a 1-min exposure time. Monitoring bioluminescence allows assessment of the kinetics of cellular viability as there is a tight correlation between the bioluminescent signal and cell viability. Data analysis was performed using the Living Image software program (version 4.3, Caliper Life Sciences, Inc., Hopkinton, MA, USA).
(§4) Figure 3 RP553, RP556, RP557 rapidly destroy P. aeruginosa and S. aureus. The bioluminescence of viable P. aeruginosa 19,660 and S. aureus 49,525 cells was quantitated in real time with an IVIS Lumina bioimaging system. Data represent the mean ± SE of triplicate replicates from two independent experiments. For some points, the error bars are shorter than the height of the symbols.

[12] = test system: S. aureus 49525 (Xen36 luciferase); assay type: cell-based, Staphylococcus aureus; conditions: 8 μg/mL, 60 min incubation, bioluminescence, triplicates from two independent experiments
Excerpt: as §2, §3, §4

SMILES: CC[C@H](C)[C@H](NC(=O)CNC(=O)CNC(=O)[C@@H]1CSSC[C@H](NC(=O)CNC(=O)CNC(=O)[C@H](CC(C)C)NC(=O)[C@H](CCCN)NC(=O)[C@H](C)NC(=O)[C@H](CCCN)NC(=O)[C@@H](NC(=O)[C@H](CCCN)NC(=O)[C@@H](N)Cc2ccccc2)[C@@H](C)CC)C(=O)N[C@@H](CC(C)C)C(=O)NCC(=O)N[C@@H](CCCN)C(=O)N[C@@H](Cc2ccccc2)C(=O)N1)C(=O)N[C@@H](CCCN)C(=O)N[C@@H](C)C(=O)N[C@@H](CCCN)C(=O)N[C@@H](CC(C)C)C(=O)N[C@@H](C)C(=O)N[C@@H](Cc1ccccc1)C(N)=O [RP504] (H-F[Orn]I[Orn]A[Orn]LGGCLG[Orn]FCGGI[Orn]A[Orn]LAF-NH2; disulfide 10-15)
- reduction of CFU/tissue sample [1]: ≥ 2.5 logs
- MIC against P. aeruginosa 6186 (P. aeruginosa 6186): 16 µg/mL (≈ 6.63 µM)
- MIC against P. aeruginosa ATCC 27853 (P. aeruginosa ATCC 27853): 16 µg/mL (≈ 6.63 µM)
- MIC against P. aeruginosa ATCC 19660 (P. aeruginosa ATCC 19660): 16 µg/mL (≈ 6.63 µM)
- MIC against Aspergillus fumigatus 9651 [2]: >128 µg/mL
- MIC against Candida parapsilosis Y-1761 [3]: 8 µg/mL (≈ 3.32 µM)
- MIC against Fusarium solani NRRL 28548 [4]: 2 µg/mL (≈ 0.829 µM)
- MIC against Mucor circinelloides NRRL 3631 [5]: >128 µg/mL
- MIC against Candida albicans Y-6359 (Candida albicans Y-6359): 4 µg/mL (≈ 1.66 µM)
- MIC against Aspergillus flavus MYA-3651 [6]: >128 µg/mL
- MIC against E. cloacae 6054 (E. cloacae 6054): 64 µg/mL (≈ 26.5 µM)
- MIC against Aspergillus flavus MYA-1004 [7]: >128 µg/mL
- MIC against E. cloacae 6053 (E. cloacae 6053): 32 µg/mL (≈ 13.3 µM)
- MIC against Candida krusei Y-27825 (Candida krusei Y-27825): 8 µg/mL (≈ 3.32 µM)
- MIC against S. epidermis ATCC 51625 (S. epidermis ATCC 51625): 16 µg/mL (≈ 6.63 µM)
- MIC against Candida albicans Y-326 (Candida albicans Y-326): 8 µg/mL (≈ 3.32 µM)
- MIC against Aspergillus fumigatus 9648 [8]: >128 µg/mL
- MIC against Absidia corymbifera NRRL 6251 [9]: 8 µg/mL (≈ 3.32 µM)
- MIC against Candida parapsilosis Y-1763 [10]: 2 µg/mL (≈ 0.829 µM)
- MIC against Candida krusei Y-27803 (Candida krusei Y-27803): 8 µg/mL (≈ 3.32 µM)
- MIC against K. pneumonia 6069 (K. pneumonia 6069): 32 µg/mL (≈ 13.3 µM)
- MIC against K. pneumonia ATCC 10031 (K. pneumonia ATCC 10031): 32 µg/mL (≈ 13.3 µM)
- MIC against S. aureus 6061 (S. aureus 6061): 64 µg/mL (≈ 26.5 µM)
- MIC against MRSA 6381 (MRSA 6381): 64 µg/mL (≈ 26.5 µM)
- MIC against MRSA ATCC 33592 (MRSA ATCC 33592): 32 µg/mL (≈ 13.3 µM)
- MIC against MRSA 6313 (MRSA 6313): 64 µg/mL (≈ 26.5 µM)
- MIC against S. aureus B-767 (S. aureus B-767): 32 µg/mL (≈ 13.3 µM)
- MIC against A. baumannii ATCC 17978 (A. baumannii ATCC 17978): 32 µg/mL (≈ 13.3 µM)
- MIC against A. baumannii 6838 (A. baumannii 6838): 64 µg/mL (≈ 26.5 µM)
- MIC against A. baumannii 6043 (A. baumannii 6043): 32 µg/mL (≈ 13.3 µM)
- P. aeruginosa destroyed [11]: 25%
- S. aureus killing [12]: 13%
